US7678913B2, “Ureas as factor Xa inhibitors” (Portola Pharmaceuticals, Inc., priority 2004, dated 2010)
pIC50: −log10 of the molar value.

Molecular target: T1, human plasma protein factor Xa (Homo sapiens, UniProt P00742)
T1 construct: measure proteolytic activity of the enzyme (factor Xa); purchased Haematologic Technologies (Essex Junction, Vt.); host or cells: human plasma
Assay: Factor Xa IC50 determination (cleavage of chromogenic substrate S-2765)
Type: biochemical
Details: fXa 1 nM, S-2765 100 μM, Tris buffered saline pH 7.4, room temperature
Description: This example illustrates methods for evaluating the compounds of the invention, along with results obtained for such assays. The in vitro and in vivo Factor Xa isoform activities of the inventive compounds can be determined by various procedures known in the art, such as a test for their ability to inhibit the activity of the Factor Xa isoform. […] The IC50 value is the concentration (in nM) of the compound required to provide 50% inhibition of Factor Xa isoform.
An in vitro assay for detecting and measuring inhibition activity against Factor Xa is as follows:
• The substrate S-2765 (Z-D-Arg-Gly-Arg-pNA.HCl) was obtained from Diapharma (West Chester, Ohio). Enzyme: • The human plasma protein factor Xa was purchased from Haematologic Technologies (Essex Junction, Vt.). Methods
All assays, which are performed in 96-well microtiter plates, measure proteolytic activity of the enzyme (factor Xa) by following cleavage of paranitroanilide substrate. The assay buffer used for proteolytic assays was Tris buffered saline (20 mM Tris, 150 mM NaCl, 5 mM CaCl2, 0.1% Bovine serum albumin (BSA), 5% Dimethly Sulfoxide (DMSO) pH 7.4). In a 96-well microtiter plate, inhibitor was serially diluted to give a range of concentrations from 0.01 nM to 10 μM (final). Duplicate sets of wells were assayed and control wells without inhibitor were included. Enzyme was added to each well,(fXa concentration=1nM), the plate was shaken for 5 seconds and then incubated for 5 minutes at room temperature. S2765 was added (100 μM final) and the plate was shaken for 5 seconds (final liquid volume in each well was 200 μl). The degree of substrate hydrolysis was measured at 405 nm on a Thermomax plate reader (Molecular Devices, Sunnyvale, Calif.) for 2 minutes. The initial velocities (mOD/min), for each range of inhibitor concentrations, were fitted to a four parameter equation using Softmax data analysis software. The parameter C, derived from the resulting curve-fit, corresponded to the concentration for half maximal inhibition (IC50).

T1 sequence (P00742 235-488 limits assumed): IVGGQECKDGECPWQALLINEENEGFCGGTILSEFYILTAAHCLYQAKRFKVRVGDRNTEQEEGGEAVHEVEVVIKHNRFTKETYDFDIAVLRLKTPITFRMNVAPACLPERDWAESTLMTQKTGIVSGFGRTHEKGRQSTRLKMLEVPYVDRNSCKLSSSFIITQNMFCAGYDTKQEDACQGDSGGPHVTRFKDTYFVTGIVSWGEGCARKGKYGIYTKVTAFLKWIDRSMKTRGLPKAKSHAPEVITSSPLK
T1 sequence (P00742 41-179 partner limits assumed): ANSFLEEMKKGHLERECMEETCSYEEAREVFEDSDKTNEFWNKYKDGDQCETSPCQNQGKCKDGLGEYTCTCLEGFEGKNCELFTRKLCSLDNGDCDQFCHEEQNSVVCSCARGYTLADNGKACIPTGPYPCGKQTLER

SMILES | pIC50
CN1CCN=C1c1ccc(NC(=O)C(CC(C)(C)C)NC(=O)Nc2ccc(Cl)cc2)cc1 (centres unmarked) [Example 4, N-[4-(1-methyl-4,5-dihydro-1H-imidazol-2-yl)phenyl]-2-(2,2-dimethylpropyl)-2-(4-chlorophenylaminocarbonylamino)-acetamide] | ≤ 6.30
CN1CCN=C1c1ccc(NC(=O)C(Cc2c[nH]c3ccccc23)NC(=O)Nc2ccc(Cl)cc2)cc1 (centres unmarked) [Example 6, N-[4-(1-methyl-4,5-dihydro-1H-imidazol-2-yl)phenyl]-2-indol-3-ylmethyl-2-(4-chlorophenylaminocarbonylamino)-acetamide] | ≥ 7.00
CN1CCN=C1c1ccc(NC(=O)C(Cc2c[nH]cn2)NC(=O)Nc2ccc(Cl)cc2)cc1 (centres unmarked) [Example 7, N-[4-(1-methyl-4,5-dihydro-1H-imidazol-2-yl)phenyl]-2-imidazol-4-ylmethyl-2-(4-chlorophenylaminocarbonylamino)-acetamide] | ≥ 7.00
CN1CCN=C1c1ccc(NC(=O)C(NC(=O)Nc2ccc(Cl)cc2)c2cccnc2)cc1 (centres unmarked) [Example 9, N-[4-(1-methyl-4,5-dihydro-1H-imidazol-2-yl)phenyl]-2-pyridin-3-yl-2-(4-chlorophenylaminocarbonylamino)-acetamide] | 6.30 to 7.00
CN1CCN=C1c1ccc(NC(=O)C(NC(=O)Nc2ccc(Cl)cc2)c2ccc(F)cc2)cc1 (centres unmarked) [Example 10, N-[4-(1-methyl-4,5-dihydro-1H-imidazol-2-yl)phenyl]-2-(4-fluorophenyl)-2-(4-chlorophenylaminocarbonylamino)-acetamide] | ≥ 7.00
CN1CCN=C1c1ccc(NC(=O)C(NC(=O)Nc2ccc(Cl)cc2)c2cccs2)cc1 (centres unmarked) [Example 12, N-[4-(1-methyl-4,5-dihydro-1H-imidazol-2-yl)phenyl]-2-(2-thienyl)-2-(4-chlorophenylaminocarbonylamino)-acetamide] | ≥ 7.00
CN1CCN=C1c1ccc(NC(=O)C(NC(=O)Nc2ccc(Cl)cc2)(c2ccccc2)c2ccccc2)cc1 [Example 14, N-[4-(1-methyl-4,5-dihydro-1H-imidazol-2-yl)phenyl]-2,2-diphenyl-2-(4-chlorophenylaminocarbonylamino)-acetamide] | ≤ 6.30
CN1CCN=C1c1ccc(NC(=O)C(NC(=O)Nc2ccc(Cl)cc2)c2ccccc2)cc1 (centres unmarked) [Example 16, N-[4-(1-methyl-4,5-dihydro-1H-imidazol-2-yl)phenyl]-2-phenyl-2-(4-chlorophenylaminocarbonylamino)-acetamide] | ≥ 7.00
C#Cc1ccc(NC(=O)NC(C(=O)Nc2ccc(C3=NCCN3C)cc2)c2cccs2)cc1 (centres unmarked) [Example 18, N-[4-(1-methyl-4,5-dihydro-1H-imidazol-2-yl)phenyl]-2-(2-thienyl)-2-(4-ethynylphenylaminocarbonylamino)-acetamide] | 6.30 to 7.00
CN(C)C(=N)c1ccc(NC(=O)C(NC(=O)Nc2ccc(Cl)cc2)c2ccccc2)cc1 (centres unmarked) [Example 23] | ≥ 7.00
CCN(C)C(=N)c1ccc(NC(=O)C(NC(=O)Nc2ccc(Cl)cc2)c2ccccc2)cc1 (centres unmarked) [Example 24, N-[4-(N-methyl-N-ethylaminoimino)phenyl]-2-phenyl-2-(4-chlorophenylaminocarbonylamino)-acetamide] | ≥ 7.00
C=CCN(C)C(=N)c1ccc(NC(=O)C(NC(=O)Nc2ccc(Cl)cc2)c2ccccc2)cc1 (centres unmarked) [Example 26, N-[4-(N-methyl-N-allylaminoimino)phenyl]-2-phenyl-2-(4-chlorophenylaminocarbonylamino)-acetamide] | ≥ 7.00

Continued, values first:

pIC50 | SMILES
≥ 7.00 | CN1CCN=C1c1ccc(NC(=O)CNC(=O)Nc2ccc(Cl)cc2)cc1 [Example 1, N-[4-(1-methyl-4,5-dihydro-1H-imidazol-2-yl)phenyl]-2-(4-chlorophenylaminocarbonylamino)-acetamide]
≥ 7.00 | CC(C)C(NC(=O)Nc1ccc(Cl)cc1)C(=O)Nc1ccc(C2=NCCN2C)cc1 (centres unmarked) [Example 2, N-[4-(1-methyl-4,5-dihydro-1H-imidazol-2-yl)phenyl]-2-isopropyl-2-(4-chlorophenylaminocarbonylamino)-acetamide]
6.30 to 7.00 | CN1CCN=C1c1ccc(NC(=O)C(NC(=O)Nc2ccc(Cl)cc2)C(C)(C)C)cc1 (centres unmarked) [Example 3, N-[4-(1-methyl-4,5-dihydro-1H-imidazol-2-yl)phenyl]-2-(1,1-dimethylethyl)-2-(4-chlorophenylaminocarbonylamino)-acetamide]
≥ 7.00 | CN1CCN=C1c1ccc(NC(=O)C(Cc2ccccc2)NC(=O)Nc2ccc(Cl)cc2)cc1 (centres unmarked) [Example 5, N-[4-(1-methyl-4,5-dihydro-1H-imidazol-2-yl)phenyl]-2-benzyl-2-(4-chlorophenylaminocarbonylamino)-acetamide]
≥ 7.00 | CN1CCN=C1c1ccc(NC(=O)C(Cc2cn(C)c3ccccc23)NC(=O)Nc2ccc(Cl)cc2)cc1 (centres unmarked) [Example 8, N-[4-(1-methyl-4,5-dihydro-1H-imidazol-2-yl)phenyl]-2-(1-methyl-indol-3-ylmethyl)-2-(4-chlorophenylaminocarbonylamino)-acetamide]
≥ 7.00 | CN1CCN=C1c1ccc(NC(=O)C(NC(=O)Nc2ccc(Cl)cc2)c2ccccc2F)cc1 (centres unmarked) [Example 11, N-[4-(1-methyl-4,5-dihydro-1H-imidazol-2-yl)phenyl]-2-(2-fluorophenyl)-2-(4-chlorophenylaminocarbonylamino)-acetamide]
≥ 7.00 | CN1CCN=C1c1ccc(NC(=O)C(NC(=O)Nc2ccc(Cl)cc2)c2ccsc2)cc1 (centres unmarked) [Example 13, N-[4-(1-methyl-4,5-dihydro-1H-imidazol-2-yl)phenyl]-2-(3-thienyl)-2-(4-chlorophenylaminocarbonylamino)-acetamide]
6.30 to 7.00 | CN1CCN=C1c1ccc(NC(=O)C2(NC(=O)Nc3ccc(Cl)cc3)CC2)cc1 [Example 15, N-[4-(1-methyl-4,5-dihydro-1H-imidazol-2-yl)phenyl]-1-(4-chlorophenylaminocarbonylamino)-1-cyclopropanecarboxamide]
6.30 to 7.00 | CN1CCN=C1c1ccc(NC(=O)C(NC(=O)Nc2ccc(F)cc2)c2cccs2)cc1 (centres unmarked) [Example 17, N-[4-(1-methyl-4,5-dihydro-1H-imidazol-2-yl)phenyl]-2-(2-thienyl)-2-(4-fluorophenylaminocarbonylamino)-acetamide]
≥ 7.00 | CN(C)C(=N)c1ccc(NC(=O)C(NC(=O)Nc2ccc(Cl)cc2)c2cccs2)cc1 (centres unmarked) [Example 19, N-[4-(dimethylaminoimino)phenyl]-2-(2-thienyl)-2-(4-chlorophenylamino-carbonylamino)-acetamide]
≥ 7.00 | CCN(C)C(=N)c1ccc(NC(=O)C(NC(=O)Nc2ccc(Cl)cc2)c2cccs2)cc1 (centres unmarked) [Example 20, N-[4-(N-methyl-N-ethylaminoimino)phenyl]-2-(2-thienyl)-2-(4-chlorophenylaminocarbonylamino)-acetamide]
≥ 7.00 | N=C(c1ccc(NC(=O)C(NC(=O)Nc2ccc(Cl)cc2)c2cccs2)cc1)N1CCCC1 (centres unmarked) [Example 21]
≥ 7.00 | N=C(c1ccc(NC(=O)C(NC(=O)Nc2ccc(Cl)cc2)c2cccs2)cc1)N1CCCCC1 (centres unmarked) [Example 22]
≥ 7.00 | CNC(=N)c1ccc(NC(=O)C(NC(=O)Nc2ccc(Cl)cc2)c2ccccc2)cc1 (centres unmarked) [Example 25, N-[4-(methylaminoimino)phenyl]-2-phenyl-2-(4-chlorophenylamino-carbonylamino)-acetamide]
